# Reference: paper PMC7957563, “The Novel benzamide Derivative, VKNG-2, Restores the Efficacy of Chemotherapeutic Drugs in Colon Cancer Cell Lines by Inhibiting the ABCG2 Transporter” (International Journal of Molecular Sciences, 2021)
# Target: T1, ABCG2 transporter (Homo sapiens, UniProt Q9UNQ0)
# T1 construct: ABCG2-overexpressing cell membranes
# T1 sequence (Q9UNQ0 1-655): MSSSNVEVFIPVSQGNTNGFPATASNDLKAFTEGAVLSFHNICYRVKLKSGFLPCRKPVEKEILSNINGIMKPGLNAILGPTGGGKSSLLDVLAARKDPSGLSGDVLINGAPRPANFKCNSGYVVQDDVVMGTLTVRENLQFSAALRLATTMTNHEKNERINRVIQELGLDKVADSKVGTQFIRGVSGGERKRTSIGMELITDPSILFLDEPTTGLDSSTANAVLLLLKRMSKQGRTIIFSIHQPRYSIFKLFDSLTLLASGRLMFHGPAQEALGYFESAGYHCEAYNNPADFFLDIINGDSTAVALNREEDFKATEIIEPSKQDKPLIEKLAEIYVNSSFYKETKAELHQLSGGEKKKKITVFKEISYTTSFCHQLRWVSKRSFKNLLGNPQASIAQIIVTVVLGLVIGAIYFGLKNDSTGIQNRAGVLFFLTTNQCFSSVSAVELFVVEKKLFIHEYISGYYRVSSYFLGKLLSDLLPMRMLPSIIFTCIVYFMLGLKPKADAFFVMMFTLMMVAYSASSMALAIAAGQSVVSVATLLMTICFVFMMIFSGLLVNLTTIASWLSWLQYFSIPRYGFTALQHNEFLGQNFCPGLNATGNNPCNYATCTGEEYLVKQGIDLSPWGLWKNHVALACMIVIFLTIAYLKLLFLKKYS
# Assay: vanadate-sensitive ATPase stimulation in ABCG2-overexpressing membranes; [3H]-mitoxantrone efflux inhibition in S1-M1-80 cells
# Format: biochemical
smiles,measurement,value
"CCCc1ccc(NC(=O)c2ccccc2NC(=O)Nc2cccc([N+](=O)[O-])c2)cc1 [VKNG-2, 2-(3-(3-Nitrophenyl)ureido)-N-(4-propylphenyl)benzamide]",EC50,2300 nM
